Assays:
cells = assay: apoptosis induction / cell cycle measurements in cells; assay type: cell-based
[1] = biological target: MDR-1 gene product P-glycoprotein (Homo sapiens, UniProt P08183); assay: P-glycoprotein-mediated substrate efflux; assay type: cell-based
Chain of MDR-1 gene product P-glycoprotein (P08183 whole entry): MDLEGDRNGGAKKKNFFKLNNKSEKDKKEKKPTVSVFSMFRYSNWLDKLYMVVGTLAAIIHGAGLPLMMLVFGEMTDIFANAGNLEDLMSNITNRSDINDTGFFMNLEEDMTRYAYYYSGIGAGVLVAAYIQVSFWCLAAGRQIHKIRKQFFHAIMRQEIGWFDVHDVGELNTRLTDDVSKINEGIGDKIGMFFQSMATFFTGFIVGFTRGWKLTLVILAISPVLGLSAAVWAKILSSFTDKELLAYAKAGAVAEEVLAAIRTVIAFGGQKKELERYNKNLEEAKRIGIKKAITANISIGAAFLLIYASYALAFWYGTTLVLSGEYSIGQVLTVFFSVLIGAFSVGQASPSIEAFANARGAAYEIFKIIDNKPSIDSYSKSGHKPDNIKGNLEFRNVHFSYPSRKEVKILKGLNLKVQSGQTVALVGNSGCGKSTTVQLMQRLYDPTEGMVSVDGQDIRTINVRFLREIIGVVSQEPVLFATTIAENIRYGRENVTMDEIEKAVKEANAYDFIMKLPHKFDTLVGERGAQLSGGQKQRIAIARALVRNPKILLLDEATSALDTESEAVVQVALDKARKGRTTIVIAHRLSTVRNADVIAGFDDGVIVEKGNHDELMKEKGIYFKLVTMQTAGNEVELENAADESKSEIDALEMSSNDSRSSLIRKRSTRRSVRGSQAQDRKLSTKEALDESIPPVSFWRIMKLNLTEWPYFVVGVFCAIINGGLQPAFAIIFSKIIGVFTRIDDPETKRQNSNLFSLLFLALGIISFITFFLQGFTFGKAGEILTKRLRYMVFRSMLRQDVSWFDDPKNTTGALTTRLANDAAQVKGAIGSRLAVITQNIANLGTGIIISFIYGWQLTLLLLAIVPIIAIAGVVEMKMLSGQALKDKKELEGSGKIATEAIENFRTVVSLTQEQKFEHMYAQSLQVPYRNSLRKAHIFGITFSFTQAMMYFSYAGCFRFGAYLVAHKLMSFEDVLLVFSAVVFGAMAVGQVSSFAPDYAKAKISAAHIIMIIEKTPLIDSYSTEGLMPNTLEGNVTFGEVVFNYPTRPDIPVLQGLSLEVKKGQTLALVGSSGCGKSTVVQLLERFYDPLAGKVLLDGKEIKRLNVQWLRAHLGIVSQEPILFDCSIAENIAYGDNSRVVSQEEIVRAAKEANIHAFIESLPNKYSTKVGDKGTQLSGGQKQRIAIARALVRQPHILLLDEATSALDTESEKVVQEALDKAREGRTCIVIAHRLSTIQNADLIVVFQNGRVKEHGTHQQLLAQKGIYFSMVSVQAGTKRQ

## COc1cc([C@@H]2c3cc4c(cc3[C@@H](O[C@@H]3O[C@@H]5CO[C@@H](C)O[C@H]5[C@H](O)[C@H]3O)[C@H]3COC(=O)[C@H]23)OCO4)cc(OC)c1O [etoposide]
cells
  apoptosis is complete after: 48 h
[1]
  effect on P-glycoprotein: ineffective
  retention in cells / efflux: pumped out of the cells

Source: patent US10183035B2, “Etoposide and prodrugs thereof for use in targeting cancer stem cells” (CELLACT PHARMA GMBH, priority 2013, dated 2019)
